Source: PubChem BioAssay AID1918999 (Molecular Pharmacology Branch, DTP, NCI, 2023)

System: 556581-035-R-J1-PDC complex spheroid growth
Experiment: Anticancer human tumor 556581-035-R-J1-PDC patient-derived ovarian carcinoma cell line growth inhibition [AhR]
Settings: for IC50: curve of first compound; for viability, T/C: stronger effect = lower value
Summary of the method: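 Spheroids combined tumor cells with HUVEC endothelial cells and human MSCs as stroma. AhR antagonists were paired with standard or investigational drugs, each dosed in half-log steps down from near clinical Cmax, or from 10 microM where Cmax was unknown.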

[1] = second compound 0.1 µM, first compound 0.0316 µM
[2] = second compound 0.1 µM, first compound 0.1 µM
[3] = second compound 0.1 µM, first compound 0.316 µM
[4] = second compound 0.1 µM, first compound 1 µM
[5] = second compound 0.1 µM, first compound 3.16 µM
[6] = second compound 0.1 µM, first compound 10 µM
[7] = second compound 0.316 µM, first compound 0.0316 µM
[8] = second compound 0.316 µM, first compound 0.1 µM
[9] = second compound 0.316 µM, first compound 0.316 µM
[10] = second compound 0.316 µM, first compound 1 µM
[11] = second compound 0.316 µM, first compound 3.16 µM
[12] = second compound 0.316 µM, first compound 10 µM
[13] = second compound 1 µM, first compound 0.0316 µM
[14] = second compound 1 µM, first compound 0.1 µM
[15] = second compound 1 µM, first compound 0.316 µM
[16] = second compound 1 µM, first compound 1 µM
[17] = second compound 1 µM, first compound 3.16 µM
[18] = second compound 1 µM, first compound 10 µM
[19] = second compound 3.16 µM, first compound 0.0316 µM
[20] = second compound 3.16 µM, first compound 0.1 µM
[21] = second compound 3.16 µM, first compound 0.316 µM
[22] = second compound 3.16 µM, first compound 1 µM
[23] = second compound 3.16 µM, first compound 3.16 µM
[24] = second compound 3.16 µM, first compound 10 µM
[25] = second compound 10 µM, first compound 0.0316 µM
[26] = second compound 10 µM, first compound 0.1 µM
[27] = second compound 10 µM, first compound 0.316 µM
[28] = second compound 10 µM, first compound 1 µM
[29] = second compound 10 µM, first compound 3.16 µM
[30] = second compound 10 µM, first compound 10 µM
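For viability, T/C in this document: compound exposure lasted 7 days; 100% = DMSO vehicle control growth.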

SMILES	IC50 (second compound 0.1 µM) [µM]	IC50 (second compound 0.316 µM) [µM]	IC50 (second compound 1 µM) [µM]	IC50 (second compound 3.16 µM) [µM]	IC50 (second compound 10 µM) [µM]	viability, T/C [1] [%]	viability, T/C [2] [%]	viability, T/C [3] [%]	viability, T/C [4] [%]	viability, T/C [5] [%]	viability, T/C [6] [%]	viability, T/C [7] [%]	viability, T/C [8] [%]	viability, T/C [9] [%]	viability, T/C [13] [%]	viability, T/C [14] [%]	viability, T/C [19] [%]	viability, T/C [20] [%]	viability, T/C [25] [%]	viability, T/C [26] [%]	further results
CC1(C)CCC(CN2CCN(c3ccc(C(=O)NS(=O)(=O)c4ccc(NCC5CCOCC5)c([N+](=O)[O-])c4)c(Oc4cnc5[nH]ccc5c4)c3)CC2)=C(c2ccc(Cl)cc2)C1 + CC(CO)NC(=O)c1cc(-c2ccc(Cl)cc2)nn(-c2cnn(C)c2)c1=O	> 10	> 10	> 10	> 10	> 10	99.2	111	114	90.7	96.5	90.1	99.3	116	102	117	117	104	106	109	115	viability, T/C [10]: 97.2%; viability, T/C [11]: 98.6%; viability, T/C [12]: 82.8%; viability, T/C [15]: 105%; viability, T/C [16]: 106%; viability, T/C [17]: 103%; viability, T/C [18]: 79.5%; viability, T/C [21]: 105%; viability, T/C [22]: 122%; viability, T/C [23]: 94%; viability, T/C [24]: 73%; viability, T/C [27]: 115%; viability, T/C [28]: 122%; viability, T/C [29]: 99%; viability, T/C [30]: 85.7%
COc1cc(Nc2ncc3c(n2)-c2ccc(Cl)cc2C(c2c(F)cccc2OC)=NC3)ccc1C(=O)O + CC(CO)NC(=O)c1cc(-c2ccc(Cl)cc2)nn(-c2cnn(C)c2)c1=O	> 10	> 10	> 10	> 10	> 10	86	70.6	66	66.5	61.3	52.6	88.8	73.4	59	95.7	69.3	79.9	71.2	88.5	80.8	viability, T/C [10]: 62.2%; viability, T/C [11]: 55.2%; viability, T/C [12]: 49.4%; viability, T/C [15]: 73.4%; viability, T/C [16]: 64.9%; viability, T/C [17]: 55.8%; viability, T/C [18]: 49.5%; viability, T/C [21]: 70.2%; viability, T/C [22]: 65.7%; viability, T/C [23]: 54%; viability, T/C [24]: 60.9%; viability, T/C [27]: 66%; viability, T/C [28]: 71.3%; viability, T/C [29]: 56.7%; viability, T/C [30]: 55.1%
Cn1ncnc1C1c2n[nH]c(=O)c3cc(F)cc(c23)NC1c1ccc(F)cc1 (stereo not given) + CC(CO)NC(=O)c1cc(-c2ccc(Cl)cc2)nn(-c2cnn(C)c2)c1=O	> 0.1	> 0.1	> 0.1	> 0.1	> 0.1	97.3	99.7					99.3	93.4		98.7	99.6	101	89.6	92.6	97.2	viability, T/C (second compound 0.1 µM, first compound 0.000316 µM): 109%; viability, T/C (second compound 0.1 µM, first compound 0.001 µM): 104%; viability, T/C (second compound 0.1 µM, first compound 0.00316 µM): 101%; viability, T/C (second compound 0.1 µM, first compound 0.01 µM): 103%; viability, T/C (second compound 0.316 µM, first compound 0.000316 µM): 97%; viability, T/C (second compound 0.316 µM, first compound 0.001 µM): 111%; viability, T/C (second compound 0.316 µM, first compound 0.00316 µM): 137%; viability, T/C (second compound 0.316 µM, first compound 0.01 µM): 113%; viability, T/C (second compound 1 µM, first compound 0.000316 µM): 112%; viability, T/C (second compound 1 µM, first compound 0.001 µM): 105%; viability, T/C (second compound 1 µM, first compound 0.00316 µM): 113%; viability, T/C (second compound 1 µM, first compound 0.01 µM): 105%; viability, T/C (second compound 3.16 µM, first compound 0.000316 µM): 114%; viability, T/C (second compound 3.16 µM, first compound 0.001 µM): 110%; viability, T/C (second compound 3.16 µM, first compound 0.00316 µM): 105%; viability, T/C (second compound 3.16 µM, first compound 0.01 µM): 93.3%; viability, T/C (second compound 10 µM, first compound 0.000316 µM): 105%; viability, T/C (second compound 10 µM, first compound 0.001 µM): 110%; viability, T/C (second compound 10 µM, first compound 0.00316 µM): 110%; viability, T/C (second compound 10 µM, first compound 0.01 µM): 112%
NS(=O)(=O)OCC1CC(n2ccc3c(NC4CCc5ccccc54)ncnc32)CC1O (stereo not given) + CC(CO)NC(=O)c1cc(-c2ccc(Cl)cc2)nn(-c2cnn(C)c2)c1=O	> 10	> 10	> 10	> 10	> 10	98.2	108	112	107	107	86.9	107	121	97.1	106	118	101	111	95.8	109	viability, T/C [10]: 104%; viability, T/C [11]: 109%; viability, T/C [12]: 78.9%; viability, T/C [15]: 104%; viability, T/C [16]: 111%; viability, T/C [17]: 88.3%; viability, T/C [18]: 86.7%; viability, T/C [21]: 103%; viability, T/C [22]: 106%; viability, T/C [23]: 99.8%; viability, T/C [24]: 89.5%; viability, T/C [27]: 115%; viability, T/C [28]: 109%; viability, T/C [29]: 121%; viability, T/C [30]: 96.7%
O=C(C=Cc1cccc(S(=O)(=O)Nc2ccccc2)c1)NO + CC(CO)NC(=O)c1cc(-c2ccc(Cl)cc2)nn(-c2cnn(C)c2)c1=O	1.18	1.28	1.47	1.19	1.08	96.6	88.9	75.1	53.6	27.9	3.75	94	91.2	80.6	105	96.8	98.7	93.7	105	104	viability, T/C [10]: 56.2%; viability, T/C [11]: 25.7%; viability, T/C [12]: 3.23%; viability, T/C [15]: 88%; viability, T/C [16]: 63.6%; viability, T/C [17]: 24.9%; viability, T/C [18]: 2.84%; viability, T/C [21]: 74.1%; viability, T/C [22]: 54.1%; viability, T/C [23]: 28.1%; viability, T/C [24]: 3.83%; viability, T/C [27]: 75.8%; viability, T/C [28]: 53%; viability, T/C [29]: 24.3%; viability, T/C [30]: 4.22%
